The structures appear in SMILES notation.

Drawing on patent US10968193B2, “Antidiabetic bicyclic compounds” (Merck Sharp & Dohme Corp., priority 2014, dated 2021), this text covers EC50 for 39 compounds.

The target of the test is T1, human GPR40 (Homo sapiens, UniProt O14842).
T1 construct: expressed in transfected cells; host or cells: HEK cells stably expressing the aequorin reporter
The test can be described thus: Inositol Phosphate Turnover (IP1) Assay 3. It counts as cell-based. The settings on record: HEK cells stably expressing human GPR40. How it is done: Human and mouse GPR40 stable cell-lines were generated in CHO cells stably expressing NFAT BLA (Beta-lactamase). A human GPR40 stable cell-line was generated in HEK cells stably expressing the aequorin expressing reporter. The expression plasmids were transfected using lipofectamine (Life Technologies) following manufacturer's instructions. Stable cell-lines were generated following drug selection.
Inositol Phosphate Turnover (IP1) Assay 3:
The assay was performed in 384-well format. HEK cells stably expressing human GPR40 were plated at 7500 cells per well in growth medium (DMEM/10% fetal calf serum). Cell plates were then incubated 16 hours at 37 degrees in a 5% CO2 incubator.
Measurement of Inositol Phosphate Turnover (IP) was performed using the CisBio IP-One kit (Part number 62IPAPEB). After the 16 hour incubation, the growth media was removed by centrifugation using the BlueWasher (AusWasher GUI Ver. v1.0.1.8) Protocol #21—“Light Dry” and 10 ul of stimulation buffer (prepared as described in the kit) was added to each well. In a separate plate, compounds were diluted in DMSO (200-fold over the final concentration in the assay well) and 50 nl was acoustically transferred to the appropriate well in the assay cell plate. The plates were then incubated for 60 minutes at 37 degrees in a 5% CO2 incubator. 10 ul of detection buffer (also prepared as described in the IP-One kit) was added to each well and the plates were incubated at rt for 60 minutes in the dark. The plates were then read in a Perkin Elmer EnVision or equivalent reader able to measure FRET. Fluorescent ratio of emission at 665 and 620 nm was then converted to IP1 concentration by back calculating from an IP1 standard curve prepared at the time of the assay. Data is normalized to % activity using a reference compound and EC50s determined using a standard 4-parameter fit.

T1 sequence (O14842 whole entry): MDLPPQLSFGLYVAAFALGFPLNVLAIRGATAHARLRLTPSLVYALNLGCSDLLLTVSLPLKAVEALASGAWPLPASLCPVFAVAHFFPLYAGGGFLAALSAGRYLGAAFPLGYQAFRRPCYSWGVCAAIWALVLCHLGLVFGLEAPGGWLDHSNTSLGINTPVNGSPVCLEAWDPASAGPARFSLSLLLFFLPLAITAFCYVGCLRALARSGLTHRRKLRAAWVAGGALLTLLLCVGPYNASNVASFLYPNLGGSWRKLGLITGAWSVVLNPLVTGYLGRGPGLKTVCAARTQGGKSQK

As a reminder, the EC50 is the concentration needed to bring the measured effect to its halfway point. A higher EC50 goes with a need for much substance. Regarding `COc1cc(-c2ccc(C3CCc4ccc([C@H](C5CC5)[C@H](C)C(=O)O)cc4O3)c(CN3CCCC3(C)C)c2)ccn1` (mixture of isomers) [Example 111, (2S,3R)-3-cyclopropyl-3-(2-(2-((2,2-dimethylpyrrolidin-1-yl)methyl)-4-(2-methoxypyridin-4-yl)phenyl)chroman-7-yl)-2-methylpropanoic acid], the half-maximal effective concentration (EC50) came out at 0.7 nM.

`CCN(Cc1cc(-c2ccnc(OC)c2)ccc1C1CCc2ccc([C@H](C3CC3)[C@H](C)C(=O)O)cc2O1)C(C)C` (mixture of isomers) [Example 113] showed an EC50 of 0.7 nM.

The compound `COc1cc(-c2ccc(C3CCc4ccc([C@H](C5CC5)[C@H](C)C(=O)O)cc4O3)c(CN(C)C(C)(C)C)c2)ccn1` (mixture of isomers) [Example 114] registered a concentration giving a half-maximal response (EC50) of 5 nM.

With `COc1cc(-c2ccc(C3CCc4ccc([C@H](C5CC5)[C@H](C)C(=O)O)cc4O3)c(CN(C(C)C)C(C)C)c2)ccn1` (mixture of isomers) [Example 115], the EC50 is 0.1 nM.

In turn, `COc1cc(-c2ccc(C3CCc4ccc([C@H](C5CC5)[C@H](C)C(=O)O)cc4O3)c(CN3CCCCC3(C)C)c2)ccn1` (mixture of isomers) [Example 117] had an EC50 of 0.6 nM.

The compound `COc1cc(-c2ccc(C3CCc4ccc([C@H](C5CC5)[C@H](C)C(=O)O)cc4O3)c(CN3CCCC[C@H]3C)c2)ccn1` (mixture of isomers) [Example 120] returned a concentration for a half-maximal effect (EC50) of 0.7 nM.

In turn, `CCN(Cc1cc(-c2cc(OC)ncc2F)ccc1C1CCc2ccc([C@H](C3CC3)[C@H](C)C(=O)O)cc2O1)C(C)C` (mixture of isomers) [Example 124] registered a concentration for a half-maximal effect (EC50) of 0.3 nM.

As to `COc1cc(-c2ccc(C3CCc4ccc([C@H](C5CC5)[C@H](C)C(=O)O)cc4O3)c(CN(C)C(C)(C)C)c2)c(F)cn1` (mixture of isomers) [Example 125], the half-maximal effective concentration (EC50) worked out at 2.2 nM.

For `COc1cc(-c2ccc(C3CCc4ccc([C@H](C5CC5)[C@H](C)C(=O)O)cc4O3)c(CN(C(C)C)C(C)C)c2)c(F)cn1` (mixture of isomers) [Example 126], the response was half-maximal at 0.1 nM (EC50).

`COc1cc(-c2ccc(C3CCc4ccc([C@H](C5CC5)[C@H](C)C(=O)O)cc4O3)c(CN3CCCCC3(C)C)c2)c(F)cn1` (mixture of isomers) [Example 128] returned a half-maximal effective concentration (EC50) of 0.16 nM.

Take `CCOc1cc(-c2ccc(C3CCc4ccc([C@H](C5CC5)[C@H](C)C(=O)O)cc4O3)c(CN(C)C(C)(C)C)c2)c(F)cn1` (mixture of isomers) [Example 132]: the EC50 worked out at 4.8 nM.

Regarding `COCC(c1cc([C@H]2CCc3ccc([C@H](C4CC4)[C@H](C)C(=O)O)cc3O2)ccc1-c1ccnc(OC)c1)N1CCCC1` (mixture of isomers) [Example 179, (2S, 3R)-3-cyclopropyl-3-((2R)-2-(3-(2-methoxy-1-(pyrrolidin-1-yl)ethyl)-4-(2-methoxypyridin-4-yl)phenyl)chroman-7-yl)-2-methylpropanoic acid], a half-maximal response (EC50) required 17 nM.

In turn, `CCN(CC)Cc1cc(C2CCc3ccc([C@H](C4CC4)[C@H](C)C(=O)O)cc3O2)ccc1-c1cc(OC)ncc1C#N` (mixture of isomers) [Example 197] came in with a concentration giving a half-maximal response (EC50) of 2.9 nM.

Consider `CCN(CC)Cc1cc(C2CCc3ccc([C@H](C4CC4)[C@H](C)C(=O)O)cc3O2)ncc1-c1cc(OC)ncc1F` (single isomer, unassigned) [Example 86], for which the response was half-maximal at 1.4 nM (EC50).

`CCN(CC)Cc1cc(C2CCc3ccc([C@H](C4CC4)[C@H](C)C(=O)O)cc3O2)ncc1-c1cc(OC)ncc1F` (single isomer, unassigned) [Example 87] had a concentration giving a half-maximal response (EC50) of 6.6 nM.

`CCN(CC)Cc1nc(C2CCc3ccc([C@H](C4CC4)[C@H](C)C(=O)O)cc3O2)ccc1-c1cc(OC)ncc1F` (single isomer, unassigned) [Example 88] yielded an EC50 of 6.7 nM.

Take `CCN(CC)Cc1nc(C2CCc3ccc([C@H](C4CC4)[C@H](C)C(=O)O)cc3O2)ccc1-c1cc(OC)ncc1F` (single isomer, unassigned) [Example 89]: the response was half-maximal at 0.9 nM (EC50).

The compound `COc1cc(-c2ccc(C3CCc4ccc([C@H](C5CCC5)[C@H](C)C(=O)O)cc4O3)cc2CN2[C@H](C)CC[C@H]2C)c(F)cn1` (single isomer, unassigned) [Example 96] returned a concentration for a half-maximal effect (EC50) of 0.06 nM.

With `COc1cc(-c2ccc(C3CCc4ccc([C@H](C5CCC5)[C@H](C)C(=O)O)cc4O3)cc2CN2[C@H](C)CC[C@H]2C)c(F)cn1` (single isomer, unassigned) [Example 97], the EC50 stood at 0.19 nM.

Consider `CCN(CC)Cc1cc(C2CCc3ccc([C@H](C4CCC4)[C@H](C)C(=O)O)cc3O2)ccc1-c1cc(OC)ncc1F` (single isomer, unassigned) [Example 98], for which the EC50 is 0.09 nM.

In turn, `CCN(CC)Cc1cc(C2CCc3ccc([C@H](C4CCC4)[C@H](C)C(=O)O)cc3O2)ccc1-c1cc(OC)ncc1F` (single isomer, unassigned) [Example 99] had an EC50 of 0.18 nM.

As for `COc1cc(-c2ccc(C3CCc4ccc([C@H](C5CCC5)[C@H](C)C(=O)O)cc4O3)cc2CN2CCCC2C)c(F)cn1` (single isomer, unassigned) [Example 100], the 50% effective concentration (EC50) was determined as 0.14 nM.

The compound `COc1cc(-c2ccc(C3CCc4ccc([C@H](C5CCC5)[C@H](C)C(=O)O)cc4O3)cc2CN2CCCC2C)c(F)cn1` (single isomer, unassigned) [Example 101] displayed an EC50 of 0.25 nM.

Regarding `COc1cc(-c2ccc(C3CCc4ccc([C@H](C5CCC5)[C@H](C)C(=O)O)cc4O3)cc2CN2CCCCC2)c(F)cn1` (single isomer, unassigned) [Example 104], the EC50 was 1.1 nM.

In turn, `COc1cc(-c2ccc(C3CCc4ccc([C@H](C5CCC5)[C@H](C)C(=O)O)cc4O3)cc2CN2CCCCC2)c(F)cn1` (single isomer, unassigned) [Example 105] had an EC50 of 0.1 nM.

As for `COc1cc(-c2ccc(C3CCc4ccc([C@H](C5CCC5)[C@H](C)C(=O)O)cc4O3)cc2CN2CCCCC23CC3)c(F)cn1` (single isomer, unassigned) [Example 106], the midpoint of the response, the EC50, lay at 0.2 nM.

The compound `COc1cc(-c2ccc(C3CCc4ccc([C@H](C5CCC5)[C@H](C)C(=O)O)cc4O3)cc2CN2CCCCC23CC3)c(F)cn1` (single isomer, unassigned) [Example 107] came in with an EC50 of 0.1 nM.

`COc1cc(-c2ccc(C3CCc4ccc([C@H](C5CCC5)[C@H](C)C(=O)O)cc4O3)cc2CN2CCCC2(C)C)c(F)cn1` (single isomer, unassigned) [Example 108] gave a concentration for a half-maximal effect (EC50) of 0.1 nM.

With `COc1cc(-c2ccc(C3CCc4ccc([C@H](C5CCC5)[C@H](C)C(=O)O)cc4O3)cc2CN2CCCC2(C)C)c(F)cn1` (single isomer, unassigned) [Example 109], the concentration giving a half-maximal response (EC50) came out at 0.1 nM.

Regarding `COc1cc(-c2ccc(C3CCc4ccc([C@H](C5CC5)[C@H](C)C(=O)O)cc4O3)c(CN3CCCC3(C)C)c2)ccn1` (single isomer, unassigned) [Example 111a], the concentration for a half-maximal effect (EC50) was 3.2 nM.

In turn, `COc1cc(-c2ccc(C3CCc4ccc([C@H](C5CC5)[C@H](C)C(=O)O)cc4O3)c(CN3CCCC3(C)C)c2)ccn1` (single isomer, unassigned) [Example 111b] registered an EC50 of 0.4 nM.

Turning to `COc1cc(-c2ccc(C3CCc4ccc([C@H](C5CC5)[C@H](C)C(=O)O)cc4O3)c(CN3CCCC3)c2)ccn1` (single isomer, unassigned) [Example 112a], the EC50 turned out to be 2.3 nM.

The compound `COc1cc(-c2ccc(C3CCc4ccc([C@H](C5CC5)[C@H](C)C(=O)O)cc4O3)c(CN3CCCC3)c2)ccn1` (single isomer, unassigned) [Example 112b] yielded a concentration for a half-maximal effect (EC50) of 273 nM.

`CCN(Cc1cc(-c2ccnc(OC)c2)ccc1C1CCc2ccc([C@H](C3CC3)[C@H](C)C(=O)O)cc2O1)C(C)C` (single isomer, unassigned) [Example 113a] came in with an EC50 of 0.4 nM.

In the case of `CCN(Cc1cc(-c2ccnc(OC)c2)ccc1C1CCc2ccc([C@H](C3CC3)[C@H](C)C(=O)O)cc2O1)C(C)C` (single isomer, unassigned) [Example 113b], the midpoint of the response, the EC50, lay at 14 nM.

Take `COc1cc(-c2ccc(C3CCc4ccc([C@H](C5CC5)[C@H](C)C(=O)O)cc4O3)c(CN(C)C(C)(C)C)c2)ccn1` (single isomer, unassigned) [Example 114a]: the EC50 was found to be 1.5 nM.

In turn, `COc1cc(-c2ccc(C3CCc4ccc([C@H](C5CC5)[C@H](C)C(=O)O)cc4O3)c(CN(C)C(C)(C)C)c2)ccn1` (single isomer, unassigned) [Example 114b] displayed an EC50 of 250 nM.

The compound `COc1cc(-c2ccc(C3CCc4ccc([C@H](C5CC5)[C@H](C)C(=O)O)cc4O3)c(CN(C(C)C)C(C)C)c2)ccn1` (single isomer, unassigned) [Example 115a] came in with an EC50 of 0.1 nM.

In the case of `COc1cc(-c2ccc(C3CCc4ccc([C@H](C5CC5)[C@H](C)C(=O)O)cc4O3)c(CN(C(C)C)C(C)C)c2)ccn1` (single isomer, unassigned) [Example 115b], a half-maximal effect (EC50) was put at 5.3 nM.
